Experimental data from US10414811B2, “Protease-resistant lipidated GLP-1 analogs” (MEDIMMUNE LIMITED, priority 2015, dated 2019).
Read-outs that look alike come from different tables or passages of the source. Numbered stars: 1 amine (or outer) side, 2 acyl side, 3 side chain; on linkers, the order of the positions; unused ones are H or OH. Square brackets hold non-standard residues; d marks the D form. Side chains are listed from the residue outwards. Peptide text beside a SMILES is read from it. * marks the point of attachment. γGlu = O=C(O)[C@H](CCC(=O)[*:2])N[*:1]; αMeF = C[C@](N)(Cc1ccccc1)C(=O)O; αMeK = C[C@](N)(CCCCN)C(=O)O; Lauroyl = CCCCCCCCCCCC(=O)*; αMeS = C[C@](N)(CO)C(=O)O; AEEA = NCCOCCOCC(=O)O; Aib = CC(C)(N)C(=O)O

What was measured:
Type in all cases: cell-based
[1] = molecular target: T1, human glucose-dependent insulinotropic peptide receptor (GIPR) (Homo sapiens, UniProt P48546); assay: cAMP assay, human GIPR cells
T1 construct: expressed in transfected cells
T1 sequence (P48546 22-466): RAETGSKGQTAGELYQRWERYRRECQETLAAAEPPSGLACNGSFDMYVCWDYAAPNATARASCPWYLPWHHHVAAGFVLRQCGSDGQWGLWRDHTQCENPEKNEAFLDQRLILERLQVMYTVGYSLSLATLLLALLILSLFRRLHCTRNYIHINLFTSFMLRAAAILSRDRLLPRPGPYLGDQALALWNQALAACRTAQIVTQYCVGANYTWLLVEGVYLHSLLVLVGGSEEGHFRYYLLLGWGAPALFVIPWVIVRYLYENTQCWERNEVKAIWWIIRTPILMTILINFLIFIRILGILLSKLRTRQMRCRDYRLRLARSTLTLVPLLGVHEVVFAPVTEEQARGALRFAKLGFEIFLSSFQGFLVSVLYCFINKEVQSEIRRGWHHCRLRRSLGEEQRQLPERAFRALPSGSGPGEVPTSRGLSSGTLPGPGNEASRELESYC
Method in brief: (§1)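 Peptide-stimulated cAMP measured by two-step HTRF after a 30 min room-temperature incubation with receptor-expressing cells (hGLP-1R, hGIPR at 1×10^5 cells/ml; hGCGR at 2×10^5 cells/ml). Duplicate dilutions; EC50 from 4-parameter logistic fit of % Delta F.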

[2] = molecular target: T2, human glucagon receptor (GCGR) (Homo sapiens, UniProt P47871); assay: cAMP assay, human GCGR cells
T2 construct: expressed in transfected cells
Method in brief: as §1

[3] = molecular target: T3, human GLP-1 receptor (GLP-1R) (Homo sapiens, UniProt P43220); assay: cAMP assay, human GLP-1R cells
T3 construct: expressed in transfected cells
Method in brief: as §1

[4] = cAMP assay, first determination (n1), read-out: Primary assay EC50 GIP-R (n1)
[5] = cAMP assay, second determination (n2), read-out: Primary assay EC50 GIP-R (n2)
[6] = cAMP assay, first determination (n1), read-out: Primary assay EC50 Gluc-R (n1)
[7] = cAMP assay, second determination (n2), read-out: Primary assay EC50 Gluc-R (n2)
[8] = cAMP assay, first determination (n1), read-out: Primary assay EC50 GLP-1R n1
[9] = cAMP assay, second determination (n2), read-out: Primary assay EC50 GLP-1R n2
[10] = mean of n1 and n2, read-out: Mean pM GLP-1R
[11] = tris-lipidated peptides, first replicate, read-out: Primary assay EC50 GIP-R (n1)
[12] = tris-lipidated peptides, mean of n1 and n2, read-out: Primary assay EC50 Mean pM GLP-1R
[13] = tris-lipidated peptides, replicate n1, read-out: Primary assay EC50 GLP-1R n1
[14] = tris-lipidated peptides, replicate n2, read-out: Primary assay EC50 GLP-1R n2

T3 sequence (P43220 24-463): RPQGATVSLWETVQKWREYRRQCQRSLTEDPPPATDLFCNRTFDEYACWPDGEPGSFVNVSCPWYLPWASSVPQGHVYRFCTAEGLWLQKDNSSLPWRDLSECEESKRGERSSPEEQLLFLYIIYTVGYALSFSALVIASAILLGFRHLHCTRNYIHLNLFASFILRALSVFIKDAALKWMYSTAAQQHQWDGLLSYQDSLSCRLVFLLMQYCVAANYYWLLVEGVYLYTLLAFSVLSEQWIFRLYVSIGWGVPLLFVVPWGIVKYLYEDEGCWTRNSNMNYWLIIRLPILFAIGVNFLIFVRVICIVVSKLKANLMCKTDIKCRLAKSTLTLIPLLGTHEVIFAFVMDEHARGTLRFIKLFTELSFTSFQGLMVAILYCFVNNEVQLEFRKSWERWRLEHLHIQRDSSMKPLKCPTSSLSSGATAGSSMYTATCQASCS
T2 sequence (P47871 26-477): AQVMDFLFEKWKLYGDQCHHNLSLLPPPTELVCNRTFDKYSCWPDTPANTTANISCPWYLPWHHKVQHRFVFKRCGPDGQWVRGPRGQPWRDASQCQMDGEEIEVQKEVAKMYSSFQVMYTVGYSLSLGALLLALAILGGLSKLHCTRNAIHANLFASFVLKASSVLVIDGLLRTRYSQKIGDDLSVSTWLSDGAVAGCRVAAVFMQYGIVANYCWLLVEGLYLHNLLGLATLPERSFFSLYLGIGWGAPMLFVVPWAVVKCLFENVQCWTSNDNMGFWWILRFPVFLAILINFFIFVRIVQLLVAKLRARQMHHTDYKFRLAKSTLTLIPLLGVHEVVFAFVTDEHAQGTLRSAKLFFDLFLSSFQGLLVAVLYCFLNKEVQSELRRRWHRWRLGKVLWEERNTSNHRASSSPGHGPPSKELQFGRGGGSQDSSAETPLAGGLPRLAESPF

EC50 [1, 4] [nM] | EC50 [1, 5] [nM] | EC50 [2, 6] [nM] | EC50 [2, 7] [nM] | EC50 [3, 8] [pM] | EC50 [3, 9] [pM] | EC50 [3, 10] [pM] | EC50 [1, 11] [nM] | EC50 ([2]; tris-lipidated peptides, first replicate, read-out: Primary assay EC50 Gluc-R (n1)) [nM] | EC50 [3, 12] [pM] | EC50 [3, 13] [pM] | EC50 [3, 14] [pM] | EC50 ([2]; tris-lipidated peptides, second replicate, read-out: Primary assay EC50 Gluc-R (n2)) [nM] | SMILES
≥ 26 | ≥ 26 | ≥ 26 | ≥ 26 | 22 | 15 | 18.2 | – | – | – | – | – | – | CCCCCCCCCCCCCCCCCC(=O)NCCCCCC(=O)NCCCCCC(=O)NCCCCCC(=O)NCCCC[C@H](NC(=O)[C@H](C)NC(=O)[C@H](C)NC(=O)[C@H](CCC(=O)O)NC(=O)CNC(=O)[C@H](CCC(=O)O)NC(=O)[C@H](CC(C)C)NC(=O)[C@](C)(Cc1ccccc1)NC(=O)[C@H](CO)NC(=O)[C@](C)(CO)NC(=O)[C@@H](NC(=O)[C@H](CC(=O)O)NC(=O)[C@H](CO)NC(=O)[C@@H](NC(=O)[C@](C)(Cc1ccccc1)NC(=O)[C@H](CO)NC(=O)CNC(=O)[C@H](CCC(=O)O)NC(=O)C(C)(C)NC(=O)[C@@H](N)Cc1c[nH]cn1)[C@@H](C)O)C(C)C)C(=O)N[C@@H](CCC(=O)O)C(=O)N[C@@](C)(Cc1ccccc1)C(=O)N[C@H](C(=O)N[C@@H](C)C(=O)N[C@@](C)(Cc1ccccc1)C(=O)N[C@H](C(=O)N[C@H](C(=O)N[C@@](C)(CCCCN)C(=O)NCC(=O)NCC(N)=O)C(C)C)C(C)C)[C@@H](C)CC [compound 151]
≥ 27 | ≥ 27 | ≥ 27 | ≥ 27 | 64 | 18 | 40.9 | – | – | – | – | – | – | CCCCCCCCCCCCCCCCCC(=O)N[C@@H](CCC(=O)N[C@@H](CCC(=O)NCCCC[C@H](NC(=O)[C@@H](NC(=O)[C@@H](NC(=O)[C@](C)(Cc1ccccc1)NC(=O)[C@H](C)NC(=O)[C@@H](NC(=O)[C@](C)(Cc1ccccc1)NC(=O)[C@H](CCC(=O)O)NC(=O)[C@](C)(CCCCN)NC(=O)[C@H](C)NC(=O)[C@H](C)NC(=O)[C@H](CCC(=O)O)NC(=O)CNC(=O)[C@H](CCC(=O)O)NC(=O)[C@H](CC(C)C)NC(=O)[C@](C)(Cc1ccccc1)NC(=O)[C@H](CO)NC(=O)[C@](C)(CO)NC(=O)[C@@H](NC(=O)[C@H](CC(=O)O)NC(=O)[C@H](CO)NC(=O)[C@@H](NC(=O)[C@](C)(Cc1ccccc1)NC(=O)[C@H](CO)NC(=O)CNC(=O)[C@H](CCC(=O)O)NC(=O)C(C)(C)NC(=O)[C@@H](N)Cc1c[nH]cn1)[C@@H](C)O)C(C)C)[C@@H](C)CC)C(C)C)C(C)C)C(=O)NCC(=O)NCC(N)=O)C(=O)O)C(=O)O [compound 183]
≥ 93 | ≥ 93 | ≥ 93 | ≥ 93 | 39 | 48 | 43 | – | – | – | – | – | – | CCCCCCCCCCCCCCCC(=O)N[C@@H](CCC(=O)NCCCC[C@H](NC(=O)[C@H](C)NC(=O)[C@H](C)NC(=O)[C@H](CCC(=O)O)NC(=O)CNC(=O)[C@H](CCC(=O)O)NC(=O)[C@H](CC(C)C)NC(=O)[C@](C)(Cc1ccccc1)NC(=O)[C@H](CO)NC(=O)[C@](C)(CO)NC(=O)[C@@H](NC(=O)[C@H](CC(=O)O)NC(=O)[C@H](CO)NC(=O)[C@@H](NC(=O)[C@](C)(Cc1ccccc1)NC(=O)[C@H](CO)NC(=O)CNC(=O)[C@H](CCC(=O)O)NC(=O)C(C)(C)NC(=O)[C@@H](N)Cc1c[nH]cn1)[C@@H](C)O)C(C)C)C(=O)N[C@@H](CCC(=O)O)C(=O)N[C@@](C)(Cc1ccccc1)C(=O)N[C@H](C(=O)N[C@@H](C)C(=O)N[C@@](C)(Cc1ccccc1)C(=O)N[C@H](C(=O)N[C@H](C(=O)N[C@@](C)(CCCCN)C(=O)NCC(=O)NCC(N)=O)C(C)C)C(C)C)[C@@H](C)CC)C(=O)O [compound 34]
25 | 25 | 25 | 25 | 62 | 82 | 72 | – | – | – | – | – | – | CC[C@H](C)[C@H](NC(=O)[C@](C)(Cc1ccccc1)NC(=O)[C@H](CCC(=O)O)NC(=O)[C@H](CCCCN)NC(=O)[C@H](C)NC(=O)[C@H](C)NC(=O)[C@H](CCC(=O)O)NC(=O)CNC(=O)[C@H](CCC(=O)O)NC(=O)[C@H](CC(C)C)NC(=O)[C@](C)(Cc1ccccc1)NC(=O)[C@H](CO)NC(=O)[C@H](CO)NC(=O)[C@@H](NC(=O)[C@H](CC(=O)O)NC(=O)[C@H](CO)NC(=O)[C@@H](NC(=O)[C@](C)(Cc1ccccc1)NC(=O)[C@H](CO)NC(=O)CNC(=O)[C@H](CCC(=O)O)NC(=O)C(C)(C)NC(=O)[C@@H](N)Cc1c[nH]cn1)[C@@H](C)O)C(C)C)C(=O)N[C@@H](C)C(=O)N[C@@](C)(Cc1ccccc1)C(=O)N[C@H](C(=O)N[C@H](C(=O)N[C@@H](CCCCN)C(=O)NCC(=O)NCC(=O)N[C@@H](CCCCNC(=O)COCCOCCNC(=O)COCCOCCNC(=O)CC[C@H](NC(=O)CCCCCCCCCCCCCCCCC(=O)O)C(=O)O)C(N)=O)C(C)C)C(C)C [compound 38]
– | – | – | – | – | – | – | 19.7 | 19.7 | 150 | 123 | 176 | – | CCCCCCCCCCCC(=O)N[C@@H](CCC(=O)NCCOCCOCC(=O)NCCOCCOCC(=O)NCCCC[C@H](NC(=O)[C@H](CCC(=O)O)NC(=O)[C@H](CC(C)C)NC(=O)[C@H](CCCCNC(=O)COCCOCCNC(=O)COCCOCCNC(=O)CC[C@H](NC(=O)CCCCCCCCCCC)C(=O)O)NC(=O)[C@H](CO)NC(=O)[C@](C)(CO)NC(=O)[C@@H](NC(=O)[C@H](CC(=O)O)NC(=O)[C@H](CO)NC(=O)[C@@H](NC(=O)[C@](C)(Cc1ccccc1)NC(=O)[C@H](CO)NC(=O)CNC(=O)[C@H](CCC(=O)O)NC(=O)C(C)(C)NC(=O)[C@@H](N)Cc1c[nH]cn1)[C@@H](C)O)C(C)C)C(=O)N[C@@H](CCC(=O)O)C(=O)N[C@@H](C)C(=O)N[C@@H](C)C(=O)N[C@@](C)(CCCCN)C(=O)N[C@@H](CCC(=O)O)C(=O)N[C@@H](Cc1ccccc1)C(=O)N[C@H](C(=O)N[C@@H](CCCCNC(=O)COCCOCCNC(=O)COCCOCCNC(=O)CC[C@H](NC(=O)CCCCCCCCCCC)C(=O)O)C(=O)N[C@@H](Cc1ccccc1)C(=O)N[C@H](C(=O)N[C@H](C(=O)N[C@@H](CCC(=O)O)C(=O)NCC(=O)NCC(N)=O)C(C)C)C(C)C)[C@@H](C)CC)C(=O)O [compound 447] (H-H[Aib]EGS[αMeF]TSDV[αMeS]SK([AEEA-AEEA-γGlu-Lauroyl])LEK([AEEA-AEEA-γGlu-Lauroyl])EAA[αMeK]EFIK([AEEA-AEEA-γGlu-Lauroyl])FVVEGG-NH2; N-terminus assumed)
≥ 100 | ≥ 100 | ≥ 100 | ≥ 100 | 4100 | 5800 | 4940 | – | – | – | – | – | – | CC[C@H](C)[C@H](NC(=O)[C@](C)(Cc1ccccc1)NC(=O)[C@H](CCC(=O)O)NC(=O)[C@](C)(CCCCN)NC(=O)[C@H](C)NC(=O)[C@H](C)NC(=O)[C@H](CCC(=O)O)NC(=O)CNC(=O)[C@H](CCC(=O)O)NC(=O)[C@H](CC(C)C)NC(=O)[C@](C)(Cc1ccccc1)NC(=O)[C@H](CO)NC(=O)[C@](C)(CO)NC(=O)[C@@H](NC(=O)[C@H](CC(=O)O)NC(=O)[C@](C)(CO)NC(=O)[C@@H](NC(=O)[C@](C)(Cc1ccccc1)NC(=O)[C@H](CO)NC(=O)CNC(=O)[C@H](CCC(=O)O)NC(=O)C(C)(C)NC(=O)[C@@H](N)Cc1c[nH]cn1)[C@@H](C)O)C(C)C)C(=O)N[C@@H](C)C(=O)N[C@@](C)(Cc1ccccc1)C(=O)N[C@H](C(=O)N[C@H](C(=O)N[C@@](C)(CCCCN)C(=O)NCC(=O)NCC(N)=O)C(C)C)C(C)C [compound 18]
– | – | – | – | – | – | – | 19.5 | – | 114 | 62.9 | 165 | 19.5 | CCCCCCCCCCCC(=O)N[C@@H](CCC(=O)NCCOCCOCC(=O)NCCOCCOCC(=O)NCCCC[C@H](NC(=O)[C@H](CCC(=O)O)NC(=O)CNC(=O)[C@H](CCC(=O)O)NC(=O)[C@H](CCCCNC(=O)COCCOCCNC(=O)COCCOCCNC(=O)CC[C@H](NC(=O)CCCCCCCCCCC)C(=O)O)NC(=O)[C@H](Cc1ccc(O)cc1)NC(=O)[C@H](CO)NC(=O)[C@](C)(CO)NC(=O)[C@@H](NC(=O)[C@H](CC(=O)O)NC(=O)[C@H](CO)NC(=O)[C@@H](NC(=O)[C@](C)(Cc1ccccc1)NC(=O)[C@H](CO)NC(=O)CNC(=O)[C@H](CCC(=O)O)NC(=O)C(C)(C)NC(=O)[C@@H](N)Cc1c[nH]cn1)[C@@H](C)O)C(C)C)C(=O)N[C@@H](C)C(=O)N[C@@](C)(CCCCN)C(=O)N[C@@H](CCC(=O)O)C(=O)N[C@@H](Cc1ccccc1)C(=O)N[C@H](C(=O)N[C@@H](CCCCNC(=O)COCCOCCNC(=O)COCCOCCNC(=O)CC[C@H](NC(=O)CCCCCCCCCCC)C(=O)O)C(=O)N[C@@H](Cc1ccccc1)C(=O)N[C@H](C(=O)N[C@H](C(=O)N[C@@H](CCC(=O)O)C(=O)NCC(=O)NCC(N)=O)C(C)C)C(C)C)[C@@H](C)CC)C(=O)O [compound 453] (H-H[Aib]EGS[αMeF]TSDV[αMeS]SYK([AEEA-AEEA-γGlu-Lauroyl])EGEK([AEEA-AEEA-γGlu-Lauroyl])A[αMeK]EFIK([AEEA-AEEA-γGlu-Lauroyl])FVVEGG-NH2)
